US5352659A, “Endothelin analogs and uses thereof” (Takeda Chemical Industries, priority 1991, dated 1994)
Like-named read-outs stand apart in the source and are kept apart here. Bridge positions count the residues as written; N and C are the ends. Square brackets hold non-standard residues; d marks the D form. Peptide text beside a SMILES is read from it. tBuAla = CC(C)(C)C[C@H](N)C(=O)O; Cha = N[C@@H](CC1CCCCC1)C(=O)O; Nle = CCCC[C@H](N)C(=O)O

What was measured:
porcine coronary artery = experiment: Constrictor activity on porcine coronary smooth muscles; settings: for Maximum constriction (% 60 mM KCl): porcine coronary artery strips, normalized to 60 mM KCl response; for Constrictor activity (specific activity): relative to ET-1 = 100
Procedure: (§1) Spiral strips 2 mm×15 mm prepared from the coronary right ramus circumflexus from which the adventitial connective tissues and the endothelial cells were removed were set to 4 ml organ baths. The tension of each strip was detected by a force displacement transducer UL-10GR (Minebea), and recorded by a polygraph (NEC Sanei). The organ baths were maintained at 37° C., and filled with a Krebs-Henseleit solution (composition: 118 mM NaCl, 4.7 mM KCl, 2.5 mM CaCl2, 1.2 mM KH2 PO4, 25.0 mM NaHCO3, 1.2 mM MgSO4, 10.0 mM glucose) gassed with 95% O2 and 5% CO2.
(§2) A tension of 1.25 to 1.5 g was applied to each of the strips, followed by equilibration for 1.5 hours. 60 mM KCl was repeatedly applied thereto at intervals of 30 minutes until the constriction response became constant. After additional equilibration for 1.5 hours, a sample for assay was given thereto. The constriction of the strips was normalized by the constriction response of the individual strips to 60 mM KCl and statistically processed.
(2) As to the antagonistic property of the peptides of the present invention to endothelin, the affinity for an endothelin receptor and the constrictor activity on porcine coronary smooth muscles (according to the method described in (1) described above) were assayed. The affinity for the receptor was assayed by the following method.

endothelin receptor = experiment: Assay of affinity for receptor (inhibition of 125I-ET-1 binding to porcine myocardial membrane fraction); settings: for Receptor binding activity (specific activity): relative to ET-1 = 100
Procedure: Assay of Affinity for Receptor
A membrane fraction prepared from the porcine heart was diluted to 0.15 mg/ml by using a buffer solution for assay, and 100 μl of the resulting suspension of the membrane fraction was poured into each assay tube to use for assay. To this suspension of the membrane fraction was added 2 μl of 5 nM ^125 I labeled endothelin-1 solution. Further, 3 μl of a test peptide solution was added thereto, followed by incubation at a temperature of 25° C. for 1 hour. Then, the resulting suspension was diluted with 900 μl of the buffer solution for assay cooled with ice, and thereafter separated into a supernatant and a precipitate by centrifugation at 12,000×g for 10 minutes. Cell membranes and an endothelin receptor embedded therein were contained in the precipitate, and radioactive iodine-labeled endothelin combined with the receptor was also recovered in the precipitate. Accordingly, the amount of radioactive iodine-labeled endothelin combined with the endothelin receptor was determined by measuring the amount of radioactive iodine contained in the precipitate with a gamma-ray counter.

[1] = test system: porcine coronary smooth muscles
Procedure: (1) Assay of Constrictor Suppressing Activity on Porcine Coronary Smooth Muscles
as §1, §2
pA2 is a negative logarithm value of a molar concentration of a competitive antagonist necessary for shifting in parallel a dose response curve for an active drug (for example, ET-1) alone to the high dose side by a factor of 2.

[2] = against cumulative endothelin-1, porcine coronary smooth muscles

SMILES | Maximum constriction (% 60 mM KCl) (porcine coronary artery) | EC50 (porcine coronary artery; porcine coronary artery, read-out: EC50 (% KCl), concentration which induces 50% of the constriction of the porcine coronary artery due to 60 mM KCl) [nM] | Constrictor activity (specific activity) (porcine coronary artery; porcine coronary artery) | IC50 (endothelin receptor; read-out: IC50, concentration required to prevent 50% of the binding of I125-ET1 to the porcine myocardial membrane fraction) [nM] | Receptor binding activity (specific activity) (endothelin receptor) | pA2 [1, 2] | Relative potency [1] | pA2 [1]
CC[C@H](C)[C@H](NC(=O)[C@H](CC(=O)O)NC(=O)[C@H](CC(C)C)NC(=O)[C@H](Cc1c[nH]cn1)NC(=O)[C@@H]1CSSC[C@H](N)C(=O)N[C@@H](CO)C(=O)N[C@H]2CSSC[C@H](NC(=O)[C@H](CCC(=O)O)NC(=O)[C@H](CCCCN)NC(=O)[C@H](CC(=O)O)NC(=O)[C@H](CCSC)NC(=O)[C@H](CC(C)C)NC(=O)[C@H](CO)NC(=O)[C@H](CO)NC2=O)C(=O)N[C@@H](C(C)C)C(=O)N[C@@H](Cc2ccc(O)cc2)C(=O)N[C@@H](Cc2ccccc2)C(=O)N1)C(=O)N[C@H](C(=O)N[C@@H](Cc1c[nH]c2ccccc12)C(=O)O)[C@@H](C)CC [ET-1, endothelin-1, reference compound] | 120 | 1.6 | […] | […] | […] | – | – | –
CC[C@H](C)[C@H](NC(=O)[C@H](CC(C)C)NC(=O)[C@@H](NC(=O)[C@H](CC(C)C)NC(=O)[C@H](Cc1c[nH]cn1)NC(=O)[C@@H]1CSSC[C@H](N)C(=O)N[C@@H](CO)C(=O)N[C@H]2CSSC[C@H](NC(=O)[C@H](CCC(=O)O)NC(=O)[C@H](CCCCN)NC(=O)[C@H](CC(=O)O)NC(=O)[C@H](CCSC)NC(=O)[C@H](CC(C)C)NC(=O)[C@H](CO)NC(=O)[C@H](CO)NC2=O)C(=O)N[C@@H](C(C)C)C(=O)N[C@@H](Cc2ccc(O)cc2)C(=O)N[C@@H](Cc2ccccc2)C(=O)N1)[C@@H](C)O)C(=O)N[C@@H](Cc1c[nH]c2ccccc12)C(=O)O [Example 1, [Thr^18, Leu^19]-ET-1] (H-CSCSSLMDKECVYFCHLTLIW-OH; disulfide 1-15, 3-11) | 4 | – | < 0.1 | – | 40 | 7.7 | – | –
CC[C@H](C)[C@H](NC(=O)[C@H](CC1CCCCC1)NC(=O)[C@@H](NC(=O)[C@H](CC(C)C)NC(=O)[C@H](Cc1c[nH]cn1)NC(=O)[C@@H]1CSSC[C@H](N)C(=O)N[C@@H](CO)C(=O)N[C@H]2CSSC[C@H](NC(=O)[C@H](CCC(=O)O)NC(=O)[C@H](CCCCN)NC(=O)[C@H](CC(=O)O)NC(=O)[C@H](CCSC)NC(=O)[C@H](CC(C)C)NC(=O)[C@H](CO)NC(=O)[C@H](CO)NC2=O)C(=O)N[C@@H](C(C)C)C(=O)N[C@@H](Cc2ccc(O)cc2)C(=O)N[C@@H](Cc2ccccc2)C(=O)N1)[C@@H](C)O)C(=O)N[C@@H](Cc1c[nH]c2ccccc12)C(=O)O [Example 2, [Thr^18, Cha^19]-ET-1] (H-CSCSSLMDKECVYFCHLT[Cha]IW-OH; disulfide 1-15, 3-11) | 2 | – | < 0.1 | – | 23 | 7.7 | – | –
CC[C@H](C)[C@H](NC(=O)[C@H](Cc1ccccc1)NC(=O)[C@@H](NC(=O)[C@H](CC(C)C)NC(=O)[C@H](Cc1c[nH]cn1)NC(=O)[C@@H]1CSSC[C@H](N)C(=O)N[C@@H](CO)C(=O)N[C@H]2CSSC[C@H](NC(=O)[C@H](CCC(=O)O)NC(=O)[C@H](CCCCN)NC(=O)[C@H](CC(=O)O)NC(=O)[C@H](CCSC)NC(=O)[C@H](CC(C)C)NC(=O)[C@H](CO)NC(=O)[C@H](CO)NC2=O)C(=O)N[C@@H](C(C)C)C(=O)N[C@@H](Cc2ccc(O)cc2)C(=O)N[C@@H](Cc2ccccc2)C(=O)N1)[C@@H](C)O)C(=O)N[C@@H](Cc1c[nH]c2ccccc12)C(=O)O [Example 3, [Thr^18, Phe^19]-ET-1] (H-CSCSSLMDKECVYFCHLTFIW-OH; disulfide 1-15, 3-11) | 4 | – | < 0.1 | – | 9.0 | – | 32 | 7.2
CC[C@H](C)[C@H](NC(=O)[C@H](CC(C)(C)C)NC(=O)[C@@H](NC(=O)[C@H](CC(C)C)NC(=O)[C@H](Cc1c[nH]cn1)NC(=O)[C@@H]1CSSC[C@H](N)C(=O)N[C@@H](CO)C(=O)N[C@H]2CSSC[C@H](NC(=O)[C@H](CCC(=O)O)NC(=O)[C@H](CCCCN)NC(=O)[C@H](CC(=O)O)NC(=O)[C@H](CCSC)NC(=O)[C@H](CC(C)C)NC(=O)[C@H](CO)NC(=O)[C@H](CO)NC2=O)C(=O)N[C@@H](C(C)C)C(=O)N[C@@H](Cc2ccc(O)cc2)C(=O)N[C@@H](Cc2ccccc2)C(=O)N1)[C@@H](C)O)C(=O)N[C@@H](Cc1c[nH]c2ccccc12)C(=O)O [Example 4, [Thr^18, γLeu^19]-ET-1] (H-CSCSSLMDKECVYFCHLT[tBuAla]IW-OH; disulfide 1-15, 3-11) | 0 | – | < 0.1 | – | 23 | 7.4 | – | –
CC[C@H](C)[C@H](NC(=O)[C@H](CC(N)=O)NC(=O)[C@@H](NC(=O)[C@H](CC(C)C)NC(=O)[C@H](Cc1c[nH]cn1)NC(=O)[C@@H]1CSSC[C@H](N)C(=O)N[C@@H](CO)C(=O)N[C@H]2CSSC[C@H](NC(=O)[C@H](CCC(=O)O)NC(=O)[C@H](CCCCN)NC(=O)[C@H](CC(=O)O)NC(=O)[C@H](CCSC)NC(=O)[C@H](CC(C)C)NC(=O)[C@H](CO)NC(=O)[C@H](CO)NC2=O)C(=O)N[C@@H](C(C)C)C(=O)N[C@@H](Cc2ccc(O)cc2)C(=O)N[C@@H](Cc2ccccc2)C(=O)N1)[C@@H](C)O)C(=O)N[C@@H](Cc1c[nH]c2ccccc12)C(=O)O [Example 5, [Thr^18, Asn^19]-ET-1] (H-CSCSSLMDKECVYFCHLTNIW-OH; disulfide 1-15, 3-11) | 9 | – | < 0.1 | – | 1.6 | – | – | –
CC[C@H](C)[C@H](NC(=O)[C@H](CC(C)C)NC(=O)[C@H](CC(N)=O)NC(=O)[C@H](CC(C)C)NC(=O)[C@H](Cc1c[nH]cn1)NC(=O)[C@@H]1CSSC[C@H](N)C(=O)N[C@@H](CO)C(=O)N[C@H]2CSSC[C@H](NC(=O)[C@H](CCC(=O)O)NC(=O)[C@H](CCCCN)NC(=O)[C@H](CC(=O)O)NC(=O)[C@H](CCSC)NC(=O)[C@H](CC(C)C)NC(=O)[C@H](CO)NC(=O)[C@H](CO)NC2=O)C(=O)N[C@@H](C(C)C)C(=O)N[C@@H](Cc2ccc(O)cc2)C(=O)N[C@@H](Cc2ccccc2)C(=O)N1)C(=O)N[C@@H](Cc1c[nH]c2ccccc12)C(=O)O [Example 7, [Asn^18, Leu^19]-ET-1] (H-CSCSSLMDKECVYFCHLNLIW-OH; disulfide 1-15, 3-11) | 4 | – | < 0.1 | – | 12 | – | – | –
CC[C@H](C)[C@H](NC(=O)[C@H](CC(C)C)NC(=O)[C@@H](NC(=O)[C@H](CC(C)C)NC(=O)[C@H](Cc1c[nH]cn1)NC(=O)[C@@H]1CSSC[C@H](N)C(=O)N[C@@H]([C@@H](C)O)C(=O)N[C@H]2CSSC[C@H](NC(=O)[C@H](CCC(=O)O)NC(=O)[C@H](CCCCN)NC(=O)[C@H](CC(=O)O)NC(=O)[C@H](CCCCN)NC(=O)[C@H](Cc3ccc(O)cc3)NC(=O)[C@H]([C@@H](C)O)NC(=O)[C@H](Cc3ccccc3)NC2=O)C(=O)N[C@@H](C(C)C)C(=O)N[C@@H](Cc2ccc(O)cc2)C(=O)N[C@@H](Cc2ccc(O)cc2)C(=O)N1)[C@@H](C)O)C(=O)N[C@@H](Cc1c[nH]c2ccccc12)C(=O)O [Example 9, [Thr^18, Leu^19]-ET-3] (H-CTCFTYKDKECVYYCHLTLIW-OH; disulfide 1-15, 3-11) | 12 | – | < 0.1 | – | 4.0 | – | – | –
CCCC[C@@H]1NC(=O)[C@H](CC(C)C)NC(=O)[C@H](CO)NC(=O)[C@H](CO)NC(=O)[C@@H]2CSSC[C@H](NC(=O)[C@H](CCC(=O)O)NC(=O)[C@H](CCCCN)NC(=O)[C@H](CC(=O)O)NC1=O)C(=O)N[C@@H](C(C)C)C(=O)N[C@@H](Cc1ccc(O)cc1)C(=O)N[C@@H](Cc1ccccc1)C(=O)N[C@H](C(=O)N[C@@H](Cc1c[nH]cn1)C(=O)N[C@@H](CC(C)C)C(=O)N[C@H](C(=O)N[C@@H](CC(C)C)C(=O)N[C@H](C(=O)N[C@@H](Cc1c[nH]c3ccccc13)C(=O)O)[C@@H](C)CC)[C@@H](C)O)CSSC[C@H](N)C(=O)N[C@@H](CO)C(=O)N2 [Example 17, [Nle^7, Thr^18, Leu^19]-ET-1] (H-CSCSSL[Nle]DKECVYFCHLTLIW-OH; disulfide 1-15, 3-11) | 9 | – | < 0.1 | – | 27 | – | – | –
